Patent US20110177054A1, “USE OF ENDO-LYSOSOMAL SYSTEM AND SECRETED VESICLES (EXOSOME-LIKE) IN TREATMENTS AND DIAGNOSTICS BASED ON SMALL RNA AND EXPERIMENTAL STUDY OF SMALL RNA” (priority 2008, published 2011)

Columns and labels:
BIG2 = target: T1, BIG2 (Homo sapiens, UniProt Q9Y6D5); test: Exosome release after RNAi of BIG2 (protein in purified exosome pellets); type: cell-based
T1 construct: endogenous in cells; host or cells: Mono-Mac6 monocytic cells
Procedure: FIG. 5: Differential centrifugation enriches exosomes greatly. (A) Western blot of 50 μg of cell or exosome lysate with markers of exosomes (CD63, Tfr R, or Ub). (B) Cell counts and total protein quantitation of exosome pellets 36 h after transfection of cells with siRNA targeting BIG2 or control. (C) Electron microscopy of resuspended exosome pellets after uranyl acetate staining. (D) Dynamic light scattering analysis of purified exosome pellets resuspended in PBS (Phosphate buffered saline). Top graph represents five sets of measurements as size in nm (x-axis) as a function of relative number (y-axis) of particles detected. Bottom graph represents size in nm (x-axis) as a function of volume (y-axis). Measurements by volume exponentially amplify the representation of larger particles present.
FIG. 9: Purified exosomes are enriched in GW182, but not Dcp1a or Ge-1. (a) Equal amounts of proteins from exosomes and cells were analyzed by western blotting for exosome-enriched protein, CD63. Electron microscopy of resuspended exosome pellets. […] Error bars, SEM of five measurements. (c) RNAi of BIG2 reduces the recovery of proteins in exosome preparations (paired t-test, n=4, p=0.0194, a=0.05). […] (d) Equal amounts of proteins from exosomes and whole cells were analyzed by western blotting. […]

[1] = system: miR-K12-4 target reporter; test: Intercellular transfer of miR-K12-4 by exosomes (psiCHECK dual luciferase reporter in target cells); type: cell-based; details: BIG2 siRNA delivered to exosome producing cells simultaneously with miR-K12-4 or miR-206 plasmids
Procedure: FIG. 7: exosomes transfer active siRNA and miRNA to target cells in a BIG2-dependent manner. (A) Exosomes purified from cells transfected with GFP siRNA or control siRNA were incubated with cells transfected with GFP. GFP expression was examined 8 hours or 24 hours later by flow cytometry. GFP expression was calculated as 1-(GFP expression GFP siRNA exosomes/GFP expression control siRNA exosomes)×100. (n=3, p<0.05, paired t-test). (B) Exosomes purified from cells transfected with miR-206 or miR-K12-4 were incubated with cells transfected with a target site for miR-K12-4 inserted into the psiCHECK dual luciferase plasmid. Activity of luciferases was measured 8 hours later. Inhibition of Firefly luciferase expression was calculated as: 1-(Firefly luciferase/Renilla luciferase miR-K12-4 exosomes)/(Firefly luciferase/Renilla luciferase miR-206 exosomes)×100. (n=4, p<0.05, paired t-test). Error bars represent standard error of the mean.
FIG. 8: Exosomes mediate transfer of miRNA activity in a BIG2-dependent manner. […] Activity of luciferases was measured after 8 hours (n=4, p=0.0287, t-test, a=0.05). […] GFP expression was measured by FACS analysis after 8 or 24 h (right). […]

T1 sequence (Q9Y6D5 whole entry): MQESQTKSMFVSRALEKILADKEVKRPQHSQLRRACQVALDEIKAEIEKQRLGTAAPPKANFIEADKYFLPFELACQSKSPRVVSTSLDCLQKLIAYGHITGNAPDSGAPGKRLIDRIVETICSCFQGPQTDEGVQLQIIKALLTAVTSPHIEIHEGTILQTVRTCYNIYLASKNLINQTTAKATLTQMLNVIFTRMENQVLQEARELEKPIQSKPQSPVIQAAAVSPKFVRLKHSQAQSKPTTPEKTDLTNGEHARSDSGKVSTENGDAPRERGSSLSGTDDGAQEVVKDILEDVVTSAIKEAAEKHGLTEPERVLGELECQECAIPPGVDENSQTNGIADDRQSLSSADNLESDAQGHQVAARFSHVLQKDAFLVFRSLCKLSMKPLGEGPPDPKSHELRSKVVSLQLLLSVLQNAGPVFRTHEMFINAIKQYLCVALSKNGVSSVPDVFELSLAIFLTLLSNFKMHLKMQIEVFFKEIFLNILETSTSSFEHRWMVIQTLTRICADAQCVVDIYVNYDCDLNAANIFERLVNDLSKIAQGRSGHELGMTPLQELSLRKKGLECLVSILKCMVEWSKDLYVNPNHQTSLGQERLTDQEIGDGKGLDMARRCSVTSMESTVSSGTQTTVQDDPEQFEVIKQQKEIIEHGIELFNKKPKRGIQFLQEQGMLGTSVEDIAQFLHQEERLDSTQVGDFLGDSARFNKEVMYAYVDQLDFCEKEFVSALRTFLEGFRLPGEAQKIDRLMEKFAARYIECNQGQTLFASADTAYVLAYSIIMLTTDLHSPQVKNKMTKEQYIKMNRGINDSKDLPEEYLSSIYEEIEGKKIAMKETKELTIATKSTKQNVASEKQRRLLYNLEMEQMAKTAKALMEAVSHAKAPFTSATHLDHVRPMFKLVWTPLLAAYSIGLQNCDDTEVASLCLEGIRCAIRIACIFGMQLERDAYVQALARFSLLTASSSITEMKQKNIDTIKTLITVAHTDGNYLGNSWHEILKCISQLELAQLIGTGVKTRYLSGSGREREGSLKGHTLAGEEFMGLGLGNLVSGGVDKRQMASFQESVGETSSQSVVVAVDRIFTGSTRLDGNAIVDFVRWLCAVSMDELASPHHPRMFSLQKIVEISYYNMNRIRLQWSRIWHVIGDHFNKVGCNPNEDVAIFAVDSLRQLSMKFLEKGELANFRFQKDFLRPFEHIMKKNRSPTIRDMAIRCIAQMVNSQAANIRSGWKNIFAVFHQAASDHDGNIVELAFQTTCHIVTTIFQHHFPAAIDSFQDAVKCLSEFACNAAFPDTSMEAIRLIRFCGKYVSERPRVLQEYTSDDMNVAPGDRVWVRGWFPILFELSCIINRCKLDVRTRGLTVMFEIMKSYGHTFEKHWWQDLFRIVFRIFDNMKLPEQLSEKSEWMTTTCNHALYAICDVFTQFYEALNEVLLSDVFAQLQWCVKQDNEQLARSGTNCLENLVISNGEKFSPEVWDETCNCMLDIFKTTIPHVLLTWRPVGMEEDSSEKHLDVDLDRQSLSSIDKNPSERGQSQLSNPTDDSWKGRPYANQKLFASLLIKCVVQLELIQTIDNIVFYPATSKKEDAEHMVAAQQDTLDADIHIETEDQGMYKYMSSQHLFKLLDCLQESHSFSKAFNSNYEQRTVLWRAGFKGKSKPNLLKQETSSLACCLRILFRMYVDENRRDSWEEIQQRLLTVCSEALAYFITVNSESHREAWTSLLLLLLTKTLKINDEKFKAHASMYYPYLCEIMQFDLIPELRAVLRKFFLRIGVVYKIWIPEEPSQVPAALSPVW

## BIG2 siRNA: siRNA targeting BIG2: CGAUGAAAUUAAAGCAGAA (SEQ ID NO. 11) (listed as RNA, chemistry not given here)
BIG2; RNAi of BIG2 vs control, paired t-test n=4 p=0.0194
  recovery of proteins in exosome preparations: reduces
BIG2; siRNA targeting BIG2 vs control siRNA, monocytic cells, transfection efficiency ~50%
  reduction of exosome release / vesicle yield: ~50%
[1]
  knockdown of miR-K12-4 reporter expression in target cells by exosomes: inhibited knockdown
